Data: the supplement of paper PMC10627819

What was measured:
S. aureus DSM 20231 [1] = assay: Bliss interaction score (quartile over a dose matrix) (fitness difference); higher = more antagonism (negative = synergy)
Summary of the method: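 Each plate was normalised to the robust mean of its own no-drug wells, using OD595 at entry into stationary phase, with values capped at 1. This normalised growth is the fitness value. The Bliss score is the difference between observed and product-expected fitness, with single-drug fitness inferred from the combination data and quartiles taken over technical, biological and donor/recipient replicates.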

S. aureus Newman = assay: fitness (endpoint OD595 vs no drug) (fraction); higher = more growth
Summary of the method: (§1)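 Background-subtracted growth curves were the basis for fitness, taken as the optical density at entry into stationary phase over the robust mean of no-drug control wells. A cap of 1 was applied. The curves came from OD595 readings every 30 min for 14 h at 37 °C, in 384-well plates seeded at OD595 0.01 with 30 µl, or 55 µl for S. pneumoniae.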

S. aureus DSM 20231 [2] = assay: as above
Summary of the method: as §1

B. subtilis 168 = assay: as above
Summary of the method: as §1

[3] = first compound 0.125 µg/mL, partner 0.0156 µg/mL
[4] = first compound 0.125 µg/mL, partner 0.0312 µg/mL
[5] = first compound 0.125 µg/mL, partner 0.0625 µg/mL
[6] = first compound 0.25 µg/mL, partner 0.0156 µg/mL
[7] = first compound 0.25 µg/mL, partner 0.0312 µg/mL
[8] = first compound 0.25 µg/mL, partner 0.0625 µg/mL
[9] = first compound 0.5 µg/mL, partner 0.0156 µg/mL
[10] = first compound 0.5 µg/mL, partner 0.0312 µg/mL
[11] = first compound 0.5 µg/mL, partner 0.0625 µg/mL
[12] = first compound 0.125 µg/mL, partner 0.375 µg/mL
[13] = first compound 0.125 µg/mL, partner 0.75 µg/mL
[14] = first compound 0.125 µg/mL, partner 1.5 µg/mL
[15] = first compound 0.25 µg/mL, partner 0.375 µg/mL
[16] = first compound 0.25 µg/mL, partner 0.75 µg/mL
[17] = first compound 0.25 µg/mL, partner 1.5 µg/mL
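Throughout, for Bliss interaction score (quartile over a dose matrix): first quartile when negative (synergy) and third quartile when positive (antagonism).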

CC[C@H]1OC(=O)[C@H](C)[C@@H](O[C@H]2C[C@@](C)(OC)[C@@H](O)[C@H](C)O2)[C@H](C)[C@@H](O[C@@H]2O[C@H](C)C[C@H](N(C)C)[C@H]2O)[C@](C)(O)C[C@@H](C)CN(C)[C@H](C)[C@@H](O)[C@]1(C)O [Azithromycin] + Cc1c(Cl)cccc1Nc1ccccc1C(=O)O [Tolfenamic]
Bliss interaction score (S. aureus DSM 20231 [1]): -0.292

CNC(C)C1CCC(N)C(OC2C(N)CC(N)C(OC3OCC(C)(O)C(NC)C3O)C2O)O1 (configuration not stated) [Gentamicin] + O=C(O)Cc1cc(I)c(Oc2ccc(O)c(I)c2)c(I)c1 [Tiratricol]
Bliss interaction score (S. aureus DSM 20231 [1]; main component drawn): 0.264

CN1CCC[C@H]1c1cccnc1 [Nicotine] + CC[C@H]1OC(=O)[C@H](C)C(=O)[C@H](C)[C@@H](O[C@@H]2O[C@H](C)C[C@H](N(C)C)[C@H]2O)[C@](C)(OC)C[C@@H](C)C(=O)[C@H](C)[C@H]2N(CCCCn3cnc(-c4cccnc4)c3)C(=O)O[C@]12C [Telithromycin]
Bliss interaction score (S. aureus DSM 20231 [1]): -0.342

CC[C@H]1OC(=O)[C@H](C)[C@@H](O[C@H]2C[C@@](C)(OC)[C@@H](O)[C@H](C)O2)[C@H](C)[C@@H](O[C@@H]2O[C@H](C)C[C@H](N(C)C)[C@H]2O)[C@](C)(O)C[C@@H](C)CN(C)[C@H](C)[C@@H](O)[C@]1(C)O [Azithromycin] + CO[C@@]12[C@H](COC(N)=O)C3=C(C(=O)C(C)=C(N)C3=O)N1C[C@@H]1N[C@@H]12 [Mitomycin C]
fitness (S. aureus Newman; [3]): 0.719
fitness (S. aureus Newman; [4]): 0.671
fitness (S. aureus Newman; [5]): 0.559
fitness (S. aureus Newman; [6]): 0.726
fitness (S. aureus Newman; [7]): 0.638
fitness (S. aureus Newman; [8]): 0.551
fitness (S. aureus Newman; [9]): 0.561
fitness (S. aureus Newman; [10]): 0.53
fitness (S. aureus Newman; [11]): 0.365
fitness (S. aureus DSM 20231 [2]; [3]): 0.674
fitness (S. aureus DSM 20231 [2]; [4]): 0.661
fitness (S. aureus DSM 20231 [2]; [5]): 0.547
fitness (S. aureus DSM 20231 [2]; [6]): 0.701
fitness (S. aureus DSM 20231 [2]; [7]): 0.664
fitness (S. aureus DSM 20231 [2]; [8]): 0.491
fitness (S. aureus DSM 20231 [2]; [9]): 0.366
fitness (S. aureus DSM 20231 [2]; [10]): 0.314
fitness (S. aureus DSM 20231 [2]; [11]): 0.171

CNC(C)C1CCC(N)C(OC2C(N)CC(N)C(OC3OCC(C)(O)C(NC)C3O)C2O)O1 (configuration not stated) [Gentamicin] + CCCSc1nc(N[C@@H]2C[C@H]2c2ccc(F)c(F)c2)c2nnn([C@@H]3C[C@H](OCCO)[C@@H](O)[C@H]3O)c2n1 [Ticagrelor]
Bliss interaction score (S. aureus DSM 20231 [1]; main component drawn): -0.576

Cc1c(Cl)cccc1Nc1ccccc1C(=O)O [Tolfenamic] + CN[C@H](CC(C)C)C(=O)N[C@H]1C(=O)N[C@@H](CC(N)=O)C(=O)N[C@H]2C(=O)N[C@H]3C(=O)N[C@H](C(=O)N[C@H](C(=O)O)c4cc(O)cc(O)c4-c4cc3ccc4O)[C@H](O)c3ccc(c(Cl)c3)Oc3cc2cc(c3O[C@@H]2O[C@H](CO)[C@@H](O)[C@H](O)[C@H]2O[C@H]2C[C@](C)(N)[C@H](O)[C@H](C)O2)Oc2ccc(cc2Cl)[C@H]1O [Vancomycin]
Bliss interaction score (S. aureus DSM 20231 [1]): 0.124

CNC(C)C1CCC(N)C(OC2C(N)CC(N)C(OC3OCC(C)(O)C(NC)C3O)C2O)O1 (configuration not stated) [Gentamicin] + CC[C@H](c1ccc(O)cc1)[C@@H](CC)c1ccc(O)cc1 [Hexestrol]
Bliss interaction score (S. aureus DSM 20231 [1]; main component drawn): -0.536

CN(C)CCCN1c2ccccc2Sc2ccc(Cl)cc21 [Chlorpromazine] + CCC[C@@H]1C[C@@H](C(=O)N[C@@H]([C@H]2O[C@H](SC)[C@H](O)[C@@H](O)[C@H]2O)[C@@H](C)O)N(C)C1 [Lincomycin]
Bliss interaction score (S. aureus DSM 20231 [1]): -0.233

CN(C)CCCN1c2ccccc2Sc2ccc(Cl)cc21 [Chlorpromazine] + CN(C)C(=O)C(CCN1CCC(O)(c2ccc(Cl)cc2)CC1)(c1ccccc1)c1ccccc1 [Loperamide]
Bliss interaction score (S. aureus DSM 20231 [1]): -0.311

CC[C@H]1OC(=O)[C@H](C)[C@@H](O[C@H]2C[C@@](C)(OC)[C@@H](O)[C@H](C)O2)[C@H](C)[C@@H](O[C@@H]2O[C@H](C)C[C@H](N(C)C)[C@H]2O)[C@](C)(O)C[C@@H](C)CN(C)[C@H](C)[C@@H](O)[C@]1(C)O [Azithromycin] + N[C@@H]1CONC1=O [Cycloserine D]
fitness (S. aureus Newman; [12]): 0.887
fitness (S. aureus Newman; [13]): 0.906
fitness (S. aureus Newman; [14]): 0.898
fitness (S. aureus Newman; [15]): 0.868
fitness (S. aureus Newman; [16]): 0.908
fitness (S. aureus Newman; [17]): 0.905
fitness (S. aureus Newman; first compound 0.5 µg/mL, partner 0.375 µg/mL): 0.674
fitness (S. aureus Newman; first compound 0.5 µg/mL, partner 1.5 µg/mL): 0.665
fitness (S. aureus DSM 20231 [2]; [12]): 0.935
fitness (S. aureus DSM 20231 [2]; [13]): 0.887
fitness (S. aureus DSM 20231 [2]; [14]): 0.948
fitness (S. aureus DSM 20231 [2]; [15]): 0.881
fitness (S. aureus DSM 20231 [2]; [16]): 0.869
fitness (S. aureus DSM 20231 [2]; [17]): 0.881
fitness (B. subtilis 168; first compound 0.25 µg/mL, partner 0.125 µg/mL): 0.946
fitness (B. subtilis 168; first compound 0.25 µg/mL, partner 0.25 µg/mL): 0.918
fitness (B. subtilis 168; first compound 0.25 µg/mL, partner 0.5 µg/mL): 0.892
fitness (B. subtilis 168; first compound 0.5 µg/mL, partner 0.125 µg/mL): 0.884
fitness (B. subtilis 168; first compound 0.5 µg/mL, partner 0.25 µg/mL): 0.854
fitness (B. subtilis 168; first compound 0.5 µg/mL, partner 0.5 µg/mL): 0.826
fitness (B. subtilis 168; first compound 2 µg/mL, partner 0.125 µg/mL, one replicate): 0.348
fitness (B. subtilis 168; first compound 2 µg/mL, partner 0.25 µg/mL, one replicate): 0.0742
fitness (B. subtilis 168; first compound 2 µg/mL, partner 0.5 µg/mL, one replicate): 0.066

Cc1onc(-c2ccccc2)c1C(=O)N[C@@H]1C(=O)N2[C@@H]1SC(C)(C)[C@@H]2C(=O)O [Oxacillin] + Cc1c(Cl)cccc1Nc1ccccc1C(=O)O [Tolfenamic]
Bliss interaction score (S. aureus DSM 20231 [1]): 0.138

CN(C)CCCN1c2ccccc2Sc2ccc(Cl)cc21 [Chlorpromazine] + C[C@H]1c2cccc(O)c2C(=O)C2=C(O)[C@]3(O)C(=O)C(C(N)=O)=C(O)[C@@H](N(C)C)[C@@H]3[C@@H](O)[C@@H]21 [Doxycycline]
Bliss interaction score (S. aureus DSM 20231 [1]): -0.263

CC[C@H]1OC(=O)[C@H](C)[C@@H](O[C@H]2C[C@@](C)(OC)[C@@H](O)[C@H](C)O2)[C@H](C)[C@@H](O[C@@H]2O[C@H](C)C[C@H](N(C)C)[C@H]2O)[C@](C)(O)C[C@@H](C)CN(C)[C@H](C)[C@@H](O)[C@]1(C)O [Azithromycin] + CN1CCN(C2=Nc3ccccc3Oc3ccc(Cl)cc32)CC1 [Loxapine]
Bliss interaction score (S. aureus DSM 20231 [1]): -0.147
